Reference: ChEMBL document CHEMBL1151792, “Development of novel tail-modified anandamide analogs” (Bioorg Med Chem Lett, 2008)

Columns and labels:
Cannabinoid receptor 1 = Cannabinoid receptor 1 (Rattus norvegicus, UniProt P20272); assay type: cell membranes, Brain, Membrane
Description: Displacement of [3H]CP-55940 from cannabinoid CB1 receptor in rat brain membrane in presence of phenylmethanesulfonyl fluoride

Cannabinoid receptor 2 = Cannabinoid receptor 2 (Mus musculus, UniProt P47936); assay: Displacement of [3H]CP-55940 from cannabinoid CB2 receptor in mouse spleen membrane; assay type: cell membranes
Cannabinoid receptor 2, sequence (P47936 whole entry): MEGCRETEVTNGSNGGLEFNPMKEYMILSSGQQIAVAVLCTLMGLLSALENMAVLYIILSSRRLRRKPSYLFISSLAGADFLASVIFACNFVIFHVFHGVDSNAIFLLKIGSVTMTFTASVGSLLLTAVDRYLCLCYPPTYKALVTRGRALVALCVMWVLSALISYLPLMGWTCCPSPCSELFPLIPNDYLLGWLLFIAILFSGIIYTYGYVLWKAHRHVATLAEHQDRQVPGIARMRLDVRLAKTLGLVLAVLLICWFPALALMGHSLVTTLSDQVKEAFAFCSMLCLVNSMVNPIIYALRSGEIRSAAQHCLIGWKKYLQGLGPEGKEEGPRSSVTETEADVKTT

Cannabinoid receptor 1, sequence (P20272 whole entry): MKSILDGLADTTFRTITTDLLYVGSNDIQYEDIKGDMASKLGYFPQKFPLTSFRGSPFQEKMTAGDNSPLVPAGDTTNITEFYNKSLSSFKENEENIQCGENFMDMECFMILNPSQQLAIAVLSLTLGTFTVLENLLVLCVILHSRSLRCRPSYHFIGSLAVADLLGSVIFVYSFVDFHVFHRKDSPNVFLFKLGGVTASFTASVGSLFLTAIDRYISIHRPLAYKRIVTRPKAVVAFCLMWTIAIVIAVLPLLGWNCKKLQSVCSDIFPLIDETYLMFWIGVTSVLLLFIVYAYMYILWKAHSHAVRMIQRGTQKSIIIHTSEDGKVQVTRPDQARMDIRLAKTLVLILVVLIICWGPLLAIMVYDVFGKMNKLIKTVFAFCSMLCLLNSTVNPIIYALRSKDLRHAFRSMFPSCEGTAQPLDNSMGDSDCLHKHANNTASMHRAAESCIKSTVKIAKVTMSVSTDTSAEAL

Row | SMILES | Ki (Cannabinoid receptor 1) [nM] | Ki (Cannabinoid receptor 2) [nM]
1 | C[C@H](CO)NC(=O)CCC/C=C\C/C=C\C/C=C\C/C=C\CCCCCc1ccccc1 | 76.6 | 241
2 | C[C@H](CO)NC(=O)CCC/C=C\C/C=C\C/C=C\C/C=C\CCCCc1ccccc1 | 13.3 | 1120
3 | C[C@H](CO)NC(=O)CCC/C=C\C/C=C\C/C=C\C/C=C\CCCCc1cccc(Cl)c1 | 89.4 | 605
4 | C[C@H](CO)NC(=O)CCC/C=C\C/C=C\C/C=C\C/C=C\CCCCc1cccc(Br)c1 | 95.3 | 1050
5 | C[C@H](CO)NC(=O)CCC/C=C\C/C=C\C/C=C\C/C=C\CCCCc1cccc(I)c1 | 533 | 1560
6 | C[C@H](CO)NC(=O)CCC/C=C\C/C=C\C/C=C\C/C=C\CCCCc1ccoc1 | 12 | 1030
7 | C[C@H](CO)NC(=O)CCC/C=C\C/C=C\C/C=C\C/C=C\CCCCCc1ccoc1 | 170 | 869
8 | C[C@H](CO)NC(=O)CCC/C=C\C/C=C\C/C=C\C/C=C\CCCCCc1ccco1 | 561 | 3260
9 | C[C@H](CO)NC(=O)CCC/C=C\C/C=C\C/C=C\C/C=C\Cc1ccccc1 | 349 | 826
10 | C[C@H](CO)NC(=O)CCC/C=C\C/C=C\C/C=C\C/C=C\CCc1ccccc1 | 241 | 335
11 | C[C@H](CO)NC(=O)CCC/C=C\C/C=C\C/C=C\C/C=C\CCCCc1ccc(Br)cc1 | 8.9 | 250
12 | C[C@H](CO)NC(=O)CCC/C=C\C/C=C\C/C=C\C/C=C\CCCCc1cccc(C(F)(F)F)c1 | 284 | 2040
13 | Cc1cccc(CCCC/C=C\C/C=C\C/C=C\C/C=C\CCCC(=O)N[C@H](C)CO)c1 | 344 | 840
14 | C[C@H](CO)NC(=O)CCC/C=C\C/C=C\C/C=C\C/C=C\CCCCc1ccccc1Br | 170 | –
15 | C[C@H](CO)NC(=O)CCC/C=C\C/C=C\C/C=C\C/C=C\CCCCc1cccc2ccccc12 | 678 | 4000
16 | C[C@H](CO)NC(=O)CCC/C=C\C/C=C\C/C=C\C/C=C\CCCCc1ccco1 | 325 | 750
17 | C[C@H](CO)NC(=O)CCC/C=C\C/C=C\C/C=C\C/C=C\CCCc1ccccc1 | 69.2 | 534
